{"source": "ChEMBL document CHEMBL4665661", "about": "“Design, synthesis, and biological activity evaluation of (-)-6-O-desmethylantofine analogues as potent anti-cancer agents” (Bioorg Med Chem, 2019)", "key": {"Bel-7402 [1]": {"tested_on": "Bel-7402", "assay": "Induction of apoptosis in human Bel-7402 cells assessed as necrotic cells at 1 uM after 72 hrs by FITC-annexin V/propidium iodide-double staining based flow cytometry (reference value: 2.86%)", "format": "functional"}, "SGC-7901": {"tested_on": "SGC-7901", "assay": "Antiproliferative activity against human SGC-7901 cells incubated for 72 hrs by MTT assay", "format": "functional, cell-based"}, "Bel-7402 [2]": {"tested_on": "Bel-7402", "assay": "Induction of apoptosis in human Bel-7402 cells assessed as late apoptotic cells at 1 uM after 72 hrs by FITC-annexin V/propidium iodide-double staining based flow cytometry (reference value: 3.06%)", "format": "functional"}, "Hep 3B2": {"tested_on": "Hep 3B2", "assay": "Antiproliferative activity against human Hep3B cells incubated for 72 hrs by MTT assay", "format": "functional, cell-based"}, "T47D": {"tested_on": "T47D", "assay": "Antiproliferative activity against human T47D cells incubated for 72 hrs by MTT assay", "format": "functional, cell-based"}, "Bel-7402 [3]": {"tested_on": "Bel-7402", "assay": "Induction of apoptosis in human Bel-7402 cells assessed as necrotic cells at 1 uM after 3 days by […]", "format": "functional", "conditions": "time 3 day"}, "SK-OV-3": {"tested_on": "SK-OV-3", "assay": "Antiproliferative activity against human SK-OV-3 cells incubated for 72 hrs by MTT assay", "format": "functional, cell-based"}, "K562 [4]": {"tested_on": "K562", "assay": "Antiproliferative activity against human K562 cells", "format": "functional, cell-based"}, "Bel-7402 [5]": {"tested_on": "Bel-7402", "assay": "Induction of apoptosis in human Bel-7402 cells assessed as late apoptotic cells at 0.01 uM after 72 hrs by FITC-annexin V/propidium iodide-double staining based flow cytometry (reference value: 3.06%)", "format": "functional"}, "SJRH30": {"tested_on": "SJRH30", "assay": "Antiproliferative activity against human SJRH30 cells incubated for 72 hrs by MTT assay", "format": "functional, cell-based"}, "Bel-7402 [6]": {"tested_on": "Bel-7402", "assay": "Inhibition of DNA synthesis in human Bel-7402 cells assessed as Brdu positive cells at 0.01 uM measured after 1 hr by propidium iodide staining-based BrdU incorporation assay (reference value: 29.8%)", "format": "functional", "design": "scale not given: the % may be the effect or the level left", "conditions": "time 30 min, 0.5 h"}, "K562 [7]": {"tested_on": "K562", "assay": "Antiproliferative activity against human K562 cells incubated for 72 hrs by MTT assay", "format": "functional, cell-based"}, "Bel-7402 [8]": {"tested_on": "Bel-7402", "assay": "Cell cycle arrest in human Bel-7402 cells assessed as increase in cell population at S phase at 33 nM by RNase A/propidium iodide staining-based flow cytometric analysis (reference value: 26.3%)", "format": "functional"}, "Bel-7402 [9]": {"tested_on": "Bel-7402", "assay": "Induction of apoptosis in human Bel-7402 cells assessed as viable cells at 0.1 uM after 72 hrs by FITC-annexin V/propidium iodide-double staining based flow cytometry (reference value: 93.6%)", "format": "functional", "conditions": "read-out: Activity"}, "Bel-7402 [10]": {"tested_on": "Bel-7402", "assay": "Induction of apoptosis in human Bel-7402 cells assessed as viable cells at 0.01 uM after 72 hrs by FITC-annexin V/propidium iodide-double staining based flow cytometry (reference value: 93.6%)", "format": "functional", "conditions": "read-out: Activity"}, "SMMC-7721 [11]": {"tested_on": "SMMC-7721", "assay": "Antiproliferative activity against human SMMC-7721 cells incubated for 72 hrs by MTT assay", "format": "functional, cell-based"}, "KB [12]": {"tested_on": "KB", "assay": "Cell cycle arrest in human KB cells assessed as inhibition of DNA synthesis by measuring increase in cell population at S phase at 1 to 10 nM upto 12 hrs by RNase A/propidium iodide staining-based flow cytometric analysis", "format": "functional", "conditions": "dose nM 1-10, time hrs <=12"}, "Huh-7": {"tested_on": "Huh-7", "assay": "Antiproliferative activity against human HuH7 cells incubated for 72 hrs by MTT assay", "format": "functional, cell-based"}, "KATO III": {"tested_on": "KATO III", "assay": "Antiproliferative activity against human […] cells incubated for 72 hrs by MTT assay", "format": "functional, cell-based"}, "COLO 205": {"tested_on": "COLO 205", "assay": "Antiproliferative activity against human COLO 205 cells incubated for 72 hrs by MTT assay", "format": "functional, cell-based"}, "Bel-7402 [13]": {"tested_on": "Bel-7402", "assay": "Induction of apoptosis in human Bel-7402 cells assessed as viable cells at 1 uM after 72 hrs by FITC-annexin V/propidium iodide-double staining based flow cytometry (reference value: 93.6%)", "format": "functional", "conditions": "read-out: Activity"}, "MKN-45": {"tested_on": "MKN-45", "assay": "Antiproliferative activity against human MKN-45 cells incubated for 72 hrs by MTT assay", "format": "functional, cell-based"}, "KB [14]": {"tested_on": "KB", "assay": "Antiproliferative activity against human KB cells incubated for 72 hrs by MTT assay", "format": "functional, cell-based"}, "Bel-7402 [15]": {"tested_on": "Bel-7402", "assay": "Induction of apoptosis in human Bel-7402 cells assessed as early apoptotic cells at 0.01 uM after 72 hrs by FITC-annexin V/propidium iodide-double staining based flow cytometry (reference value: 0.65%)", "format": "functional"}, "Zip177 [16]": {"tested_on": "Zip177", "assay": "Antiproliferative activity against human […] cells incubated for 72 hrs by MTT assay", "format": "functional, cell-based"}, "SMMC-7721 [17]": {"tested_on": "SMMC-7721", "assay": "Cell cycle arrest in human SMMC-7721 cells assessed as inhibition of DNA synthesis by measuring increase in cell population at S phase at 20 to 200 nM after 24 hrs by RNase A/propidium iodide staining-based flow cytometric analysis", "format": "functional", "conditions": "[…]"}, "Bel-7402 [18]": {"tested_on": "Bel-7402", "assay": "Cell cycle arrest in human Bel-7402 cells assessed as increase in cell population at S phase at 1.2 nM by RNase A/propidium iodide staining-based flow cytometric analysis (reference value: 26.3%)", "format": "functional", "conditions": "[…]"}, "Bel-7402 [19]": {"tested_on": "Bel-7402", "assay": "Cell cycle arrest in human Bel-7402 cells assessed as increase in cell population at S phase at 3.7 nM by RNase A/propidium iodide staining-based flow cytometric analysis (reference value: 26.3%)", "format": "functional"}, "A549": {"tested_on": "A549", "assay": "Antiproliferative activity against human A549 cells incubated for 72 hrs by MTT assay", "format": "functional, cell-based"}, "Zip177 [20]": {"tested_on": "Zip177", "assay": "Cell cycle arrest in human Zip177 cells assessed as inhibition of DNA synthesis by measuring increase in cell population at S phase at 20 to 200 nM after 24 hrs by RNase A/propidium iodide staining-based flow cytometric analysis", "format": "functional", "conditions": "[…]"}, "MCF7": {"tested_on": "MCF7", "assay": "Antiproliferative activity against human MCF7 cells incubated for 72 hrs by MTT assay", "format": "functional, cell-based"}, "Bel-7402 [21]": {"tested_on": "Bel-7402", "assay": "Induction of apoptosis in human Bel-7402 cells assessed as necrotic cells at 0.1 uM after 72 hrs by FITC-annexin V/propidium iodide-double staining based flow cytometry (reference value: 2.86%)", "format": "functional"}, "786-0": {"tested_on": "786-0", "assay": "Antiproliferative activity against human 786-0 cells incubated for 72 hrs by MTT assay", "format": "functional, cell-based"}, "Bel-7402 [22]": {"tested_on": "Bel-7402", "assay": "Effect on DNA damage marker protein level in human Bel-7402 cells assessed as phosphorylation of CHK2 at Thr68[…] at 100 fold antiproliferative IC50 after 1 hr by Western blot analysis", "format": "functional, cell-based"}, "BXPC-3": {"tested_on": "BXPC-3", "assay": "Antiproliferative activity against human BxPC-3 cells incubated for 72 hrs by MTT assay", "format": "functional, cell-based"}, "HeLa": {"tested_on": "HeLa", "assay": "Antiproliferative activity against human HeLa cells incubated for 72 hrs by MTT assay", "format": "functional, cell-based"}, "Bel-7402 [23]": {"tested_on": "Bel-7402", "assay": "Inhibition of DNA synthesis in human Bel-7402 cells assessed as Brdu positive cells at 1 uM measured after 1 hrs by propidium iodide staining-based BrdU incorporation assay (reference value: 29.8%)", "format": "functional", "design": "scale not given: the % may be the effect or the level left", "conditions": "time 30 min, 0.5 h"}, "K562/Adr": {"tested_on": "K562/Adr", "assay": "Antiproliferative activity against drug- resistant human K562/ADR cells", "format": "functional, cell-based"}, "Bel-7402 [24]": {"tested_on": "Bel-7402", "assay": "Induction of apoptosis in human Bel-7402 cells assessed as necrotic cells at 0.01 uM after 72 hrs by FITC-annexin V/propidium iodide-double staining based flow cytometry (reference value: 2.86%)", "format": "functional"}, "HL-60": {"tested_on": "HL-60", "assay": "Antiproliferative activity against human HL-60 cells after 72 hrs by MTT assay", "format": "functional, cell-based", "conditions": "HL-60, 72 h"}, "Bel-7402 [25]": {"tested_on": "Bel-7402", "assay": "Induction of apoptosis in human Bel-7402 cells assessed as early apoptotic cells at 1 uM after 72 hrs by FITC-annexin V/propidium iodide-double staining based flow cytometry (reference value: 0.65%)", "format": "functional"}}, "note": "pIC50: −log10 of the molar value. The source made the active and inactive calls. The rule behind the calls is not given here."}
{"smiles": "COc1cc2c3c(c4ccc(OCC#N)cc4c2cc1OC)CN1CCC[C@@H]1C3", "values": [{"measurement": "Activity", "setting": "Bel-7402 [1]", "value": 3.73, "unit": "%"}, {"measurement": "inhibition", "setting": "SGC-7901", "value": "Active"}, {"measurement": "Activity", "setting": "Bel-7402 [2]", "value": 15.5, "unit": "%"}, {"measurement": "inhibition", "setting": "Hep 3B2", "value": "Active"}, {"measurement": "inhibition", "setting": "T47D", "value": "Active"}, {"measurement": "Activity", "setting": "Bel-7402 [3]", "value": 20, "unit": "%"}, {"measurement": "inhibition", "setting": "SK-OV-3", "value": "Active"}, {"measurement": "pIC50", "setting": "K562 [4]", "value": 7.87}, {"measurement": "Activity", "setting": "Bel-7402 [5]", "value": 1.55, "unit": "%"}, {"measurement": "inhibition", "setting": "SJRH30", "value": "Active"}, {"measurement": "Activity", "setting": "Bel-7402 [6]", "value": 26.9, "unit": "%"}, {"measurement": "inhibition", "setting": "K562 [7]", "value": "Active"}, {"measurement": "Activity", "setting": "Bel-7402 [8]", "value": 34, "unit": "%"}, {"measurement": "viability at 0.1 µM", "setting": "Bel-7402 [9]", "value": 87.8, "unit": "%"}, {"measurement": "viability at 0.01 µM", "setting": "Bel-7402 [10]", "value": 96.3, "unit": "%"}, {"measurement": "inhibition", "setting": "SMMC-7721 [11]", "value": "Active"}, {"measurement": "Activity", "setting": "KB [12]", "value": "Active"}, {"measurement": "inhibition", "setting": "Huh-7", "value": "Active"}, {"measurement": "inhibition", "setting": "KATO III", "value": "Active"}, {"measurement": "inhibition", "setting": "COLO 205", "value": "Active"}, {"measurement": "viability at 1 µM", "setting": "Bel-7402 [13]", "value": 79.2, "unit": "%"}, {"measurement": "inhibition", "setting": "MKN-45", "value": "Active"}, {"measurement": "inhibition", "setting": "KB [14]", "value": "Active"}, {"measurement": "Activity", "setting": "Bel-7402 [15]", "value": 0.55, "unit": "%"}, {"measurement": "inhibition", "setting": "Zip177 [16]", "value": "Active"}, {"measurement": "Activity", "setting": "SMMC-7721 [17]", "value": "Active"}, {"measurement": "Activity", "setting": "Bel-7402 [18]", "value": 24.5, "unit": "%"}, {"measurement": "Activity", "setting": "Bel-7402 [19]", "value": 27, "unit": "%"}, {"measurement": "inhibition", "setting": "A549", "value": "Active"}, {"measurement": "Activity", "setting": "Zip177 [20]", "value": "Active"}, {"measurement": "inhibition", "setting": "MCF7", "value": "Active"}, {"measurement": "Activity", "setting": "Bel-7402 [21]", "value": 3.09, "unit": "%"}, {"measurement": "inhibition", "setting": "786-0", "value": "Active"}, {"measurement": "Activity", "setting": "Bel-7402 [22]", "value": "inactive"}, {"measurement": "inhibition", "setting": "BXPC-3", "value": "Active"}, {"measurement": "inhibition", "setting": "HeLa", "value": "Active"}, {"measurement": "Activity", "setting": "Bel-7402 [23]", "value": 8.15, "unit": "%"}, {"measurement": "pIC50", "setting": "K562/Adr", "value": 7.80}, {"measurement": "Activity", "setting": "Bel-7402 [24]", "value": 1.59, "unit": "%"}, {"measurement": "pIC50", "setting": "HL-60", "value": 7.36}, {"measurement": "Activity", "setting": "Bel-7402 [25]", "value": 1.6, "unit": "%"}]}
